One data set addresses T1, PKBα (Homo sapiens, UniProt P31749).
T1 construct: fused on or other part: His6 tag is likely on the Upstate products
Description: PKB kinase assay (P33-labeled ATP, peptide substrate, filter plate). The class given is biochemical. To be noted: with respect to PKBα. The text has this:
The kinase assay for evaluating PKB activity comprises active PKB enzymes, a PKB specific substrate, and P^33-labeled ATP. Two form of PKBα enzymes were used, the full length PKBα and a kinase domain of PKBα with pleckstrin domain (amino acids 1-117) deleted. Both PKB enzymes were obtained from Upstate cell signaling solutions (Cat.# 14-276 and 14-341). The PKB substrate used is a synthetic peptide (ARKRERTYSFGHHA (SEQ ID NO: 1)) as described in Obata et al., J. Biol. Chem. 275 (46), 36108-36115 (2000). The phosphorylated substrate was captured by a phosphocellulose membrane filter plate (MILLIPORE) and measured by a Wallac Microbeta liquid scintillation counter (Perkin Elmer). Table 1 provides the IC50 values obtained for each of the examples with respect to PKBα.

The target in the next data set is T2, CYP3A4 (Homo sapiens, UniProt P08684).
T2 construct: tissue XenoTech LLC Lot 0610351; host or cells: pooled human liver microsomes
T2 sequence (P08684 whole entry): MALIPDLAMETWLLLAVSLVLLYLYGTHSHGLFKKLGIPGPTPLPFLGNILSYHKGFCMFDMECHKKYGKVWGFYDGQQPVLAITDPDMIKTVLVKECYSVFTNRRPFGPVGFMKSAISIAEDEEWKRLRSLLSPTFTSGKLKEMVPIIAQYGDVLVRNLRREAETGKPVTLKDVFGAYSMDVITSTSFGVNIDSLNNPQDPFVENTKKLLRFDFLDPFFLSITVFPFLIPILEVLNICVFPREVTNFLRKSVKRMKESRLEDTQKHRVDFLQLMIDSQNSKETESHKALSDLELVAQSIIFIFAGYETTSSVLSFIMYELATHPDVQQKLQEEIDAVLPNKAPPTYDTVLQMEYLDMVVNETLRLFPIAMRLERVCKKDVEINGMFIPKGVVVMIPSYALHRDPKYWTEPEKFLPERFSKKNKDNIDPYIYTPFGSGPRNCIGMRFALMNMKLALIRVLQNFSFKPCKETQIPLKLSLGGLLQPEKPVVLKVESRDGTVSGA
The data set is described as follows: CYP3A4 inhibition assay (midazolam, pooled human liver microsomes). The settings on record: pH 7.4, probe midazolam (2.5 μM), test compound 3 μM, human liver microsomes 0.1 mg/mL. Type of data set: in vitro ADME. The protocol: Midazolam was obtained from BD Gentest (Waltham, Mass.); 1′ hydroxy midazolam and 1-hydroxy bufuralol maleate were obtained from Ultrafine Chemicals (Manchester, UK); bufuralol HCl, ketoconazole, quinidine, potassium phosphate, and NADPH were obtained from Sigma (St. Louis, Mo.). Test compounds were prepared at 10 mM concentration in DMSO (Mallinckrodt Inc., St. Louis, Mo.). NADPH was prepared at 10 mM concentration in a pH 7.4 buffer (8.3 mg/mL 66.7 mM potassium phosphate). Midazolam was prepared at 1 mM concentration in deionized water (Amgen, Thousand Oaks, Calif.), and bufuralol was prepared at 2 mM concentration in deionized water. A stock solution of ketoconazole was prepared at 37 mM concentration in DMSO, and quinidine was prepared at 500 uM concentration in DMSO. Formic acid in acetonitrile (0.05%, ACN) was used as a quench solution (Sigma-Aldrich, St. Louis, Mo.). All solvents used for LC/MS were of chromatographic grade. Pooled human liver microsomes (Lot 0610351) were purchased from XenoTech LLC, (Lenexa, Kans.).
Pooled human liver microsomes (0.1 mg/mL) were incubated at 37° C. in a phosphate buffer (66.7 mM potassium phosphate at pH 7.4) with the selective CYP3A substrate midazolam at a concentration of 2.5 μM in the presence and absence of test compound (3 μM). The reaction was started with the addition of NADPH (1 mM final concentration). The reaction was stopped after 10 minutes by addition of formic acid in acetonitrile. 1′-Hydroxymidazolam metabolite formation was measured by an HPLC MS detection method (mobile phases were 0.1% AcOH in 5% MeOH, and 0.1% AcOH in 95% MeOH; the HPLC column was an Onyx Monolithic C18 CHO-7645 HPLC column obtained from Phenomenex; Shimadzu LC-10ADVP equipped Biomek FX Liquid handling system and CTC Analytics PAL well auto-sampler; Mass spectrometer: Applied Biosystems API 3000 using Analyst 1.4.1 software). Inhibition was determined by the ratio of the amount of 1′-hydroxy midazolam metabolite formed in the presence of test compound to the amount of metabolite found in the absence of test compound Inhibition was measured relative to the rate of formation of 1′-hydroxy midazolam incubated at 2.5 μM without test compound.
A general note: Liver microsomes are a subcellular fraction often used to study metabolism.

A further data set relates to U87MG tumors. Description: U87MG xenograft tumor growth model. The class given is in vivo, Athymic nude mice. The settings on record: oral 10, 30, 60 and 100 mg/kg/day; 13 days (Example 2), 10 days and 17 days (Example 18). Here is the method: The effect of PKB inhibition on tumor growth in vivo was assessed in an established U87MG xenograft model for Examples 2 and 18. Athymic nude mice bearing U87MG tumors (approximately 200 mm^3) in the right flank were treated with the compound orally at the dosage of 10, 30, 60, and 100 mg/kg/day (n=10) for 13 days (Example 2) and for 10 days and 17 days (Example 18). Tumor volume and body weight were measured twice per week. Data were expressed as means plus or minus standard errors and plotted as a function of time. Statistical significance of the effect was evaluated by Repeated Measures Analysis of Variance (RMANOVA) followed by Scheffe post hoc testing for multiple comparisons.

The IC50 is the point on the concentration scale where inhibition reaches its midpoint. The low end stands for higher potency, the high end for lower potency. What is called inhibition is the share of the control response that was lost under treatment. Read a low inhibition as a weak effect.

Where a name gives a salt, the structure may show the parent alone.

T1 sequence (P31749 118-472 limits assumed): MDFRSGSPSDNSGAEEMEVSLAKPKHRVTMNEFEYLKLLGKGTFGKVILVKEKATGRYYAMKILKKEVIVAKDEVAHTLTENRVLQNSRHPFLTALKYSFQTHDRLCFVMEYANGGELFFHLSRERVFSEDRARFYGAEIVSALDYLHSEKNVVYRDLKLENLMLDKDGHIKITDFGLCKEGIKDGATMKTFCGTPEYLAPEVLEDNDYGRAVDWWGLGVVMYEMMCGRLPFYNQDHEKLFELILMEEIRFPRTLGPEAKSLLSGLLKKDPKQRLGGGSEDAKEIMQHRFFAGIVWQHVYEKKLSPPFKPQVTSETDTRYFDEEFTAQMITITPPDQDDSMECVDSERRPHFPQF

Compound `N[C@H](CNc1ncc(-c2ccc3cnc(F)cc3c2)s1)Cc1ccc(C(F)(F)F)nc1` [Example 2, (2S)—N-(5-(3-Fluoro-6-isoquinolinyl)-1,3-thiazol-2-yl)-3-(6-(trifluoromethyl)-3-pyridinyl)-1,2-propanediamine] returned an IC50 against PKBα of less than 50 nM. This compound registered an inhibition at 10 min, 3 μM at CYP3A4 of 75%. In the data set with U87MG tumors, the tumor growth inhibition result is given as “Dose dependent tumor growth inhibition”.
As for `N[C@H](CNc1ncc(-c2ccc3cnc(F)cc3c2)s1)Cc1ccc(C(F)(F)F)cc1` [Example 4, N—((S)-2-Amino-3-(4-(trifluoromethyl)phenyl)propyl)-5-(3-fluoroisoquinolin-6-yl)thiazol-2-amine trifluoroacetate], the IC50 against PKBα was less than 50 nM. At CYP3A4, this compound had an inhibition at 10 min, 3 μM of 0%.
For `CC(F)(F)c1ccc(C[C@H](N)CNc2ncc(-c3ccc4cnc(F)cc4c3)s2)cn1` [Example 7, N—((S)-2-Amino-3-(6-(1,1-difluoroethyl)pyridin-3-yl)propyl)-5-(3-fluoroisoquinolin-6-yl)thiazol-2-amine] the same measures were less than 50 nM and 13%.
Taken in the same sequence, the figures for `C[C@@H](c1ccc(C(F)(F)F)cc1)[C@H](N)CNc1ncc(-c2ccc3cnc(F)cc3c2)s1` [Example 10, N-((2S,3S)-2-Amino-3-(4-(trifluoromethyl)phenyl)butyl)-5-(3-fluoroisoquinolin-6-yl)thiazol-2-amine] were less than 50 nM and 0%.
At PKBα, `COCc1nc(NC[C@@H](N)Cc2ccc(C(F)(F)F)nc2)sc1-c1ccc2cnc(F)cc2c1` [Example 18, N—((S)-2-Amino-3-(6-(trifluoromethyl)pyridin-3-yl)propyl)-5-(3-fluoroisoquinolin-6-yl)-4-(methoxymethyl)thiazol-2-amine] came in with an IC50 of less than 50 nM. At CYP3A4, this compound had an inhibition at 10 min, 3 μM of 0%. Also, in the data set on U87MG tumors, the tumor growth inhibition entry is “Dose dependent tumor growth inhibition”.
Compound `N[C@H](CNc1ncc(-c2ccc3cnc(F)cc3c2)s1)CN1CCC(C(F)(F)F)CC1` [Example 25, N—((R)-2-Amino-3-(4-(trifluoromethyl)piperidin-1-yl)propyl)-5-(3-fluoroisoquinolin-6-yl)thiazol-2-amine] registered an IC50 against PKBα of 50 to 1000 nM. The inhibition at 10 min, 3 μM against CYP3A4 is 48%.
For `N[C@H](CNc1ncc(-c2ccc3cnc(F)cc3c2)s1)[C@@H](CO)c1ccc(C(F)(F)F)cc1` [Example 33, (2S,3S)-3-Amino-4-(5-(3-fluoroisoquinolin-6-yl)thiazol-2-ylamino)-2-(4-(trifluoromethyl)phenyl)butan-1-ol], the IC50 against PKBα is less than 50 nM. Moreover, the inhibition at 10 min, 3 μM on CYP3A4 came out at 48%.
Consider `N[C@H](CCc1ncc(-c2ccc3cnc(F)cc3c2)s1)[C@@H](O)c1ccc(C(F)(F)F)cc1` [Example 36, (1S,2R)-2-Amino-4-(5-(3-fluoroisoquinolin-6-yl)thiazol-2-yl)-1-(4-(trifluoromethyl)phenyl)butan-1-ol trifluoroacetate], for which the 50% inhibitory concentration (IC50) on PKBα is less than 50 nM. Moreover, the inhibition at 10 min, 3 μM against CYP3A4 was found to be 0%.
In turn, `CC(F)(F)c1ccc([C@H](O)[C@H](N)CNc2ncc(-c3ccc4cnc(F)cc4c3)s2)cc1` [Example 38, (1S,2R)-2-Amino-1-(4-(1,1-difluoroethyl)phenyl)-3-((5-(3-fluoro-6-isoquinolinyl)-1,3-thiazol-2-yl)amino)-1-propanol trifluoroacetate] showed an IC50 at PKBα of less than 50 nM. This compound gave an inhibition at 10 min, 3 μM on CYP3A4 of 9%.
For `N[C@H](CNc1ncc(-c2ccc3cnc(F)cc3c2)s1)Cc1ccc(Cl)c(F)c1` [Example 44, (2S)-3-(4-Chloro-3-fluorophenyl)-N-1-(5-(3-fluoro-6-isoquinoliny)-1,3-thiazol-2-yl)-1-2-propanediamine], the IC50 against PKBα is less than 50 nM. Further, on CYP3A4, the inhibition at 10 min, 3 μM amounted to 48%.
Take `CC(F)(F)c1ccc(C[C@H](N)CCc2ncc(-c3ccc4cnc(F)cc4c3)s2)cn1` [Example 50]: the IC50 at PKBα was less than 50 nM. Further, the inhibition at 10 min, 3 μM at CYP3A4 turned out to be 21%.

The values above are taken from US20110263647A1 (AMGEN INC., priority 2009, published 2011).
